Laboratory results taken from patent US9790169B2, “IDO inhibitors” (BRISTOL-MYERS SQUIBB COMPANY, priority 2015, dated 2017).

Target: human IDO1 (Homo sapiens, UniProt P14902)
Assay: Assessment of human IDO-1 inhibitory activity in Hela cells (Interferon-gamma stimulated HeLa cells, Ehrlich reagent, absorbance 490 nm)
Assay type: cell-based
Parameters: endogenous in cells; host or cells: HeLa cells stimulated with interferon-gamma
Settings: Hela Human IDO-1 cellular assay
How it was run: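 IDO activity induced by 18 h IFN-γ (human 10 ng/ml or murine 5 ng/ml, final) after 1 h compound pre-treatment of HeLa cells at 37 °C. Supernatant kynurenine detected via Ehrlich reagent absorbance at 490 nm following 3% TCA at 50 °C; IC50 set against no-IFN-γ and untreated-stimulated controls.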

human IDO1, sequence (P14902 whole entry): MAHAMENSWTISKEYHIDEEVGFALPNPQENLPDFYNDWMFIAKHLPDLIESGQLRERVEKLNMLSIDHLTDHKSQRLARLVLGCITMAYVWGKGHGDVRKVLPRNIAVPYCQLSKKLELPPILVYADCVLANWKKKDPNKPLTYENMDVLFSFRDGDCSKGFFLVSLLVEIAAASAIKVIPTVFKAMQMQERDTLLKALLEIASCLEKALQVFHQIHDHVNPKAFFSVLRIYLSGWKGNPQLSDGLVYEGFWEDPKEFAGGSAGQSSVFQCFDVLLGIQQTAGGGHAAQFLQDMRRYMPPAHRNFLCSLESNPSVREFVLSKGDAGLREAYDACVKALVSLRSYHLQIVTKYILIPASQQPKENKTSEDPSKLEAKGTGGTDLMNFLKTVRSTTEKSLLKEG

Row | IC50 [nM] | Compound
1 | < 5 | CC(C)CN(CC(C)C)c1ccc(C(C)(C)CC(=O)O)cc1Nc1ccc(Cl)cc1 [Example 145, 3-(3-((4-Chlorophenyl)amino)-4-(diisobutylamino)phenyl)-3-methylbutanoic acid]
2 | > 50 | CCN(c1ccc([C@@H](COC)CC(=O)O)cc1Nc1ccccc1C#N)C1CCOCC1 (single isomer, unassigned) [Example 369]
3 | < 50 | CCC1COCCN1c1ccc([C@@H](COC)CC(=O)O)cc1Nc1ccc(Cl)cc1 (single isomer, unassigned) [Example 1300]
4 | < 5 | CCCN(c1ccc([C@H](CC)CC(=O)O)cc1Nc1ccc(C#N)cc1)C1CCOCC1 (single isomer, unassigned) [Example 547]
5 | > 50 | CCC1COCCN1c1ccc([C@@H](COC)CC(=O)O)cc1Nc1ccc(F)cn1 (single isomer, unassigned) [Example 1302]
6 | > 50 | CCN(c1ccc(C(CC(=O)O)C2CC2)cc1NC(=O)Nc1ccc(C#N)cc1)C1CCOCC1 (single isomer, unassigned) [Example 255 Enantiomer 1, 3-(3-(3-(4-Cyanophenyl)ureido)-4-(ethyl(tetrahydro-2H-pyran-4-yl)amino)phenyl)-3-cyclopropylpropanoic acid]
7 | < 50 | CCC(CC(=O)O)c1ccc(N(CCOC)C2CCOCC2)c(NC(=O)Nc2ccc(Cl)cc2F)c1 (single isomer, unassigned) [Example 1265, 3-(3-(3-(4-chloro-2-fluorophenyl)ureido)-4-((2-methoxyethyl) (tetrahydro-2H-pyran-4-yl)amino)phenyl)pentanoic acid]
8 | < 5 | CCN(c1ccc([C@@H](COC)CC(=O)O)cc1Nc1ccc(C#N)cc1F)C1CCOCC1 (single isomer, unassigned) [Example 355]
9 | < 50 | COCC(CC(=O)O)c1cc(F)c(N(CC(C)C)CC(C)C)c(Nc2ccc3c(c2)OC(F)(F)O3)c1 (single isomer, unassigned) [Example 924, 3-(3-((2,2-difluorobenzo[d] [1,3]dioxol-5-yl)amino)-4-(diisobutylamino)-5-fluorophenyl)-4-methoxybutanoic acid]
10 | > 50 | CCOc1ncc(Nc2cc([C@@H](COC)CC(=O)O)ccc2N2CCOCC2CC)cn1 (single isomer, unassigned) [Example 1285]
11 | < 50 | CCC(CC(=O)O)c1ccc(N(CC)C2CCOC2)c(NC(=O)Nc2ccc(Cl)cc2F)c1 (single isomer, unassigned) [948 D2]
12 | < 5 | CCC(CC(=O)O)c1ccc(N2CCOC[C@H]2C(C)C)c(Nc2ccc(F)cc2)c1 (single isomer, unassigned) [Example 889]
13 | < 50 | CCCN(c1ccc(C(C)(C)CC(=O)O)cc1NC(=O)Nc1ccc(C)cc1)C1CCOCC1 [Example 25, 3-Methyl-3-(4-(propyl(tetrahydro-2H-pyran-4-yl)amino)-3-(3-(p-tolyl)ureido)phenyl)butanoic acid]
14 | < 5 | CCC(CC(=O)O)c1cc(F)c(N(CC)C2CCOCC2)c(Nc2cnc(OC)nc2)c1 (single isomer, unassigned) [Example 140, 3-(4-(ethyl(tetrahydro-2H-pyran-4-yl)amino)-3-fluoro-5-((2-methoxypyrimidin-5-yl)amino)phenyl) pentanoic acid]
15 | < 50 | CCC(CC(=O)O)c1cc(F)c(N(CC)C2CCOCC2)c(Nc2cnc(OCC3CC3)nc2)c1 (single isomer, unassigned) [Example 136, 3-(3-((2-(cyclopropylmethoxy)pyrimidin-5-yl)amino)-4-(ethyl(tetrahydro-2H-pyran-4-yl)amino)-5-fluorophenyl)pentanoic acid]
16 | < 5 | CCN(c1ccc([C@@H](COC)CC(=O)O)cc1Nc1ccc(Cl)cc1F)C1CCOCC1 (single isomer, unassigned) [Example 362]
17 | < 5 | CCC(CC(=O)O)c1cc(F)c(N(CC)C2CCOCC2)c(Nc2ccc(C#N)cn2)c1 (single isomer, unassigned) [Example 138, 3-(3-((5-cyanopyridin-2-yl)amino)-4-(ethyl (tetrahydro-2H-pyran-4-yl)amino)-5-fluorophenyl) pentanoic acid]
18 | < 50 | CCc1ccc(Nc2cc(C(CC)CC(=O)O)ccc2N2CCOC[C@H]2C(C)C)cc1 (single isomer, unassigned) [Example 890]
19 | < 5 | CCC(CC(=O)O)c1cc(Nc2cnc(OCC3CC3)nc2)c(N(CC)C2CCOCC2)cc1F (single isomer, unassigned) [Example 858, 3-(5-((2-(cyclopropyl-methoxy)pyrimidin-5-yl)amino)-4-(ethyl(tetra-hydro-2H-pyran-4-yl)amino)-2-fluorophenyl) pentanoic acid]
20 | > 50 | CCC(CC(=O)O)c1ccc(N2CCOCC2)c(NC(=O)Nc2ccc(C)cc2)c1 (single isomer, unassigned) [Example 8 Enantiomer 1, 3-(4-Morpholino-3-(3-(p-tolyl)ureido)phenyl)pentanoic acid]

Row | IC50 [nM] | Compound
21 | < 50 | CCC(CC(=O)O)c1ccc(N(CCOC)C2CCOCC2)c(Nc2cnc(OC)nc2)c1 (single isomer, unassigned) [Example 1259, 3-(4-((2-methoxyethyl)(tetrahydro-2H-pyran-4-yl)amino)-3-((2-methoxypyrimidin-5-yl)amino)phenyl)pentanoic acid]
22 | < 5 | CCCN(c1ccc([C@H](CC)CC(=O)O)cc1Nc1ccc(F)cc1)C1CCOCC1 (single isomer, unassigned) [Example 549]
23 | > 50 | COCC(CC(=O)O)c1ccc(N2CCC(c3ccccc3)CC2)c(NC(=O)Nc2ccc(Cl)cc2F)c1 (single isomer, unassigned) [Example 1357 E1, 3-(3-(3-(4-Chloro-2-fluorophenyl)ureido)-4-(4-phenylpiperidin-1-yl)phenyl)-4-methoxybutanoic acid]
24 | > 50 | CCN(c1cc(F)c([C@@H](COC)CC(=O)O)cc1NC(=O)Nc1ccc(C#N)cc1)C1CCOCC1 (single isomer, unassigned) [Example 849, 3-(5-(3-(4-Cyanophenyl)ureido)-4-(ethyl(tetrahydro-2H-pyran-4-yl)amino)-2-fluorophenyl)-4-methoxybutanoic acid]
25 | < 50 | CCN(c1ccc([C@@H](COC)CC(=O)O)cc1Nc1ccc(F)cn1)C1CCOCC1 (single isomer, unassigned) [Example 363]
26 | < 5 | CC[C@@H](CC(=O)O)c1ccc(N(CC2CC2)CC(C)(C)O)c(Nc2ccc(C#N)cc2)c1 (single isomer, unassigned) [Example 268]
27 | > 50 | CCN(c1ccc([C@@H](COC)CC(=O)O)cc1NC(=O)Nc1ccc(F)cc1F)C1CCOCC1 (single isomer, unassigned) [Example 431]
28 | < 50 | CCN(c1ccc([C@@H](COC)CC(=O)O)cc1NC(=O)Nc1ccc(Cl)cc1Cl)C1CCOCC1 (single isomer, unassigned) [Example 430]
29 | < 5 | CCCN(c1ccc(C(COC)CC(=O)O)cc1Nc1ccc(Cl)cc1)C1CCS(=O)(=O)CC1 (single isomer, unassigned) [Example 185, 3-(3-((4-chlorophenyl)amino)-4-((1,1-dioxidotetrahydro-2H-thiopyran-4-yl)(propyl)amino)phenyl)-4-methoxybutanoic acid]
30 | < 50 | CCCN(c1ccc([C@@H](CC)CC(=O)O)cc1NC(=O)Nc1ccc(C#N)cc1)C1CCOCC1 (single isomer, unassigned) [Example 545]
31 | < 50 | CCN(c1ccc([C@H](CC(=O)O)C(F)(F)F)cc1NC(=O)Nc1ccc(C)cc1)C1CCOCC1 (single isomer, unassigned) [Example 1269]
32 | < 5 | COCC(CC(=O)O)c1ccc(N(CC(F)F)C2CCOCC2)c(Nc2ccc(Cl)cc2)c1 (single isomer, unassigned) [Example 321 Enantiomer 1, 3-(3-((4-Chlorophenyl)amino)-4-((2,2-difluoroethyl)(tetrahydro-2H-pyran-4-yl)amino)phenyl)-4-methoxybutanoic acid]
33 | > 50 | COCC(CC(=O)O)c1ccc(N2CCOC[C@@H]2C(C)C)c(NC(=O)Nc2ccc(C#N)cc2)c1 (single isomer, unassigned) [Example 932]
34 | < 5 | CCOc1ncc(Nc2cc(C(CC)CC(=O)O)c(F)cc2N(CC)C2CCOCC2)cn1 (single isomer, unassigned) [Example 860, 3-(5-((2-ethoxy-pyrimidin-5-yl)amino)-4-(ethyl(tetra-hydro-2H-pyran-4-yl)amino)-2-fluorophenyl) pentanoic acid]
35 | < 50 | CCOc1ncc(Nc2cc(C(C)CC(=O)O)ccc2N(CC)C2CCOCC2)cn1 (single isomer, unassigned) [Example 632, 3-(3-((2-ethoxypyrimidin-5-yl)amino)-4-(ethyl (tetrahydro-2H-pyran-4-yl)amino)phenyl)butanoic acid]
36 | < 5 | CCOc1cnc(Nc2cc([C@H](CC)CC(=O)O)ccc2N(CC)C2CCOCC2)cn1 (single isomer, unassigned) [Example 508]
37 | > 50 | CCC1COCCN1c1ccc([C@@H](COC)CC(=O)O)cc1Nc1ccc(C#N)c(F)c1 (single isomer, unassigned) [Example 1282]
38 | < 5 | CCCN(c1ccc(C(CC)CC(=O)O)cc1Nc1ccc(C#N)cc1)C1CCS(=O)(=O)CC1 (single isomer, unassigned) [Example 12 Enantiomer 1, 3-(3-((4-Cyanophenyl)amino)-4-((1,1-dioxidotetrahydro-2H-thiopyran-4-yl)(propyl)amino)phenyl)pentanoic acid]
39 | < 50 | CCN(c1ccc([C@H](CC(=O)O)C(F)(F)F)cc1Nc1cnc(OC)nc1)C1CCOCC1 [Example 599, (S)-3-(4-(ethyl(tetrahydro-2H-pyran-4-yl)amino)-3-((2-methoxypyrimidin-5-yl)amino)phenyl)-4,4,4-trifluorobutanoic acid]
